Experimental data taken from PubChem BioAssay (NCI).
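Briefly, cells in 96-well plates were exposed to five compound concentrations for 48 h, and endpoints were estimated by linear interpolation. GI50 is the concentration that inhibits growth by half. The concentration for full growth arrest is given as TGI.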

How the values were obtained:
Assay in all cases: inhibition of tumour cell growth, NCI panel, 48 h
BT-549 breast = system: BT-549 breast
TK-10 renal = system: TK-10 renal
NCI-H522 lung = system: NCI-H522 lung
U251 CNS = system: U251 CNS
SK-OV-3 ovarian = system: SK-OV-3 ovarian
UO-31 renal = system: UO-31 renal
K-562 leukemia = system: K-562 leukemia
MOLT-4 leukemia = system: MOLT-4 leukemia
UACC-62 melanoma = system: UACC-62 melanoma
HOP-62 NSCLC = system: HOP-62 NSCLC
SN12C renal = system: SN12C renal
HL-60(TB) leukemia = system: HL-60(TB) leukemia
SF-268 CNS = system: SF-268 CNS
HCT-15 colon = system: HCT-15 colon
HS 578T breast = system: HS 578T breast
LOX IMVI melanoma = system: LOX IMVI melanoma
RPMI-8226 leukemia = system: RPMI-8226 leukemia
786-0 renal = system: 786-0 renal
SR leukemia = system: SR leukemia
OVCAR-5 ovarian = system: OVCAR-5 ovarian
MCF7 breast = system: MCF7 breast
KM12 colon = system: KM12 colon
MDA-MB-435 = system: MDA-MB-435
OVCAR-8 ovarian = system: OVCAR-8 ovarian
CAKI-1 renal = system: CAKI-1 renal
SK-MEL-2 melanoma = system: SK-MEL-2 melanoma
HCT-116 colon = system: HCT-116 colon
OVCAR-4 ovarian = system: OVCAR-4 ovarian
HOP-92 NSCLC = system: HOP-92 NSCLC
PC-3 prostate = system: PC-3 prostate
SK-MEL-5 melanoma = system: SK-MEL-5 melanoma
SK-MEL-28 melanoma = system: SK-MEL-28 melanoma
SNB-75 CNS = system: SNB-75 CNS
OVCAR-3 ovarian = system: OVCAR-3 ovarian
NCI-H226 lung = system: NCI-H226 lung
SF-295 CNS = system: SF-295 CNS
A498 renal = system: A498 renal
CCRF-CEM leukemia = system: CCRF-CEM leukemia
M14 melanoma = system: M14 melanoma
DU-145 prostate = system: DU-145 prostate
RXF 393 renal = system: RXF 393 renal
COLO 205 colon = system: COLO 205 colon
T-47D breast = system: T-47D breast
EKVX NSCLC = system: EKVX NSCLC
A549 NSCLC = system: A549 NSCLC
IGROV1 ovarian = system: IGROV1 ovarian
MALME-3M melanoma = system: MALME-3M melanoma
NCI-H23 lung = system: NCI-H23 lung
NCI/ADR-RES ovarian = system: NCI/ADR-RES ovarian
SNB-19 CNS = system: SNB-19 CNS
ACHN renal = system: ACHN renal
SF-539 CNS = system: SF-539 CNS
MDA-MB-231 breast = system: MDA-MB-231 breast
HCC-2998 colon = system: HCC-2998 colon
NCI-H460 lung = system: NCI-H460 lung
UACC-257 melanoma = system: UACC-257 melanoma
HT29 colon = system: HT29 colon
SW-620 colon = system: SW-620 colon

## Clc1ccc(C2c3ccccc3-c3nccn32)c(Cl)c1 (stereo unspecified)
BT-549 breast
  GI50: 9.01 µM
  TGI: 21.7 µM
TK-10 renal
  GI50: 13.7 µM
  TGI: 28.6 µM
NCI-H522 lung
  GI50: 11.4 µM
  TGI: 31.7 µM
U251 CNS
  GI50: 13.4 µM
  TGI: 26.2 µM
SK-OV-3 ovarian
  GI50: 14.7 µM
  TGI: 33.2 µM
UO-31 renal
  GI50: 7.37 µM
  TGI: 23.3 µM
K-562 leukemia
  GI50: 1.37 µM
  TGI: > 40.5 µM
MOLT-4 leukemia
  GI50: 2.8 µM
  TGI: 20.5 µM
UACC-62 melanoma
  GI50: 9.66 µM
  TGI: 23 µM
HOP-62 NSCLC
  GI50: 16.9 µM
  TGI: 44.2 µM
SN12C renal
  GI50: 13.8 µM
  TGI: 30.6 µM
HL-60(TB) leukemia
  GI50: 2.25 µM
  TGI: 18.4 µM
SF-268 CNS
  GI50: 14 µM
  TGI: 27.4 µM
HCT-15 colon
  GI50: 11.5 µM
  TGI: 24.4 µM
HS 578T breast
  GI50: 13.6 µM
  TGI: 35.5 µM
LOX IMVI melanoma
  GI50: 11.2 µM
  TGI: 23.9 µM
RPMI-8226 leukemia
  GI50: 0.941 µM
  TGI: 8.48 µM
786-0 renal
  GI50: 19.5 µM
  TGI: > 55.2 µM
SR leukemia
  GI50: 2.34 µM
  TGI: 30 µM
OVCAR-5 ovarian
  GI50: 14.8 µM
  TGI: 30.1 µM
MCF7 breast
  GI50: 12.5 µM
  TGI: 25.7 µM
KM12 colon
  GI50: 13.2 µM
  TGI: 26.6 µM
MDA-MB-435
  GI50: 10.6 µM
  TGI: 22.5 µM
OVCAR-8 ovarian
  GI50: 12.6 µM
  TGI: 32.5 µM
CAKI-1 renal
  GI50: 1.98 µM
  TGI: 19 µM
SK-MEL-2 melanoma
  GI50: 11.3 µM
  TGI: 26 µM
HCT-116 colon
  GI50: 9.7 µM
  TGI: 39.2 µM
OVCAR-4 ovarian
  GI50: 3.6 µM
  TGI: 17.4 µM
HOP-92 NSCLC
  GI50: 9.94 µM
  TGI: 25.7 µM
PC-3 prostate
  GI50: 11.6 µM
  TGI: 31.3 µM
SK-MEL-5 melanoma
  GI50: 6.3 µM
  TGI: 18.8 µM
SK-MEL-28 melanoma
  GI50: 13.6 µM
  TGI: 26.5 µM
SNB-75 CNS
  GI50: 11.2 µM
  TGI: 23.7 µM
OVCAR-3 ovarian
  GI50: 11 µM
  TGI: 22.9 µM
NCI-H226 lung
  GI50: 6.92 µM
  TGI: 26 µM
SF-295 CNS
  GI50: 4.52 µM
  TGI: 18.3 µM
A498 renal
  GI50: 12.2 µM
  TGI: 24.6 µM
CCRF-CEM leukemia
  GI50: 2.77 µM
  TGI: > 44.1 µM
M14 melanoma
  GI50: 21.2 µM
  TGI: 62.4 µM
DU-145 prostate
  GI50: 13.6 µM
  TGI: 26.4 µM
RXF 393 renal
  GI50: 14.6 µM
  TGI: 30.6 µM
COLO 205 colon
  GI50: 13.5 µM
  TGI: 28 µM
T-47D breast
  GI50: 5.13 µM
  TGI: 32.8 µM
EKVX NSCLC
  GI50: 5.28 µM
  TGI: 19.3 µM
A549 NSCLC
  GI50: 13.4 µM
  TGI: 36.7 µM
IGROV1 ovarian
  GI50: 11.7 µM
  TGI: > 47.9 µM
MALME-3M melanoma
  GI50: 10.6 µM
  TGI: 23.1 µM
NCI-H23 lung
  GI50: 6.56 µM
  TGI: 35.5 µM
NCI/ADR-RES ovarian
  GI50: 6.57 µM
  TGI: 24 µM
SNB-19 CNS
  GI50: 13.2 µM
  TGI: 27.4 µM
ACHN renal
  GI50: 12.3 µM
  TGI: 26.9 µM
SF-539 CNS
  GI50: 15 µM
  TGI: 28.5 µM
MDA-MB-231 breast
  GI50: 11.5 µM
  TGI: 26 µM
HCC-2998 colon
  GI50: 13.9 µM
  TGI: 28.1 µM
NCI-H460 lung
  GI50: 12.2 µM
  TGI: 24.6 µM
UACC-257 melanoma
  GI50: 12.5 µM
  TGI: 28.9 µM
HT29 colon
  GI50: 9.87 µM
  TGI: 24.6 µM
SW-620 colon
  GI50: 13.6 µM
  TGI: 26.5 µM
